Measurements from the supplement of paper PMC10307832.

Legend:
Test in all cases: relative viability (nuclei count vs DMSO), 5 days (fraction); higher = more cells survive
RERF-LC-KJ = tested on: RERF-LC-KJ
Procedure, shortened: (§1)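 Cells from lung cancer lines were seeded into 1536-well plates and, one day later, dosed by pin tool. Treatments were either a single drug or a fixed dose of an anchor drug with five library-drug doses (not always all listed) in √10 steps. After 5 days, nuclei were stained in a one-step fixation (final 0.05% Triton X-100, 1% formaldehyde, 1 ug/ml Hoechst) and counted on 4× images, and relative viability is the treated-to-vehicle nuclei ratio, as the median of duplicate plates.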

UMC-11 = tested on: UMC-11
Procedure, shortened: as §1

NCI-H2087 = tested on: NCI-H2087
Procedure, shortened: as §1

SK-MES-1 = tested on: SK-MES-1
Procedure, shortened: as §1

BEN = tested on: BEN
Procedure, shortened: as §1

LC-2-ad = tested on: LC-2-ad
Procedure, shortened: as §1

NCI-H1395 = tested on: NCI-H1395
Procedure, shortened: as §1

201T = tested on: 201T
Procedure, shortened: as §1

LXF-289 = tested on: LXF-289
Procedure, shortened: as §1

NCI-H2170 = tested on: NCI-H2170
Procedure, shortened: as §1

HARA = tested on: HARA
Procedure, shortened: as §1

HOP-62 = tested on: HOP-62
Procedure, shortened: as §1

LOU-NH91 = tested on: LOU-NH91
Procedure, shortened: as §1

COR-L 105 = tested on: COR-L 105
Procedure, shortened: as §1

H3255 = tested on: H3255
Procedure, shortened: as §1

NCI-H1993 = tested on: NCI-H1993
Procedure, shortened: as §1

HCC-78 = tested on: HCC-78
Procedure, shortened: as §1

EMC-BAC-2 = tested on: EMC-BAC-2
Procedure, shortened: as §1

LU99A = tested on: LU99A
Procedure, shortened: as §1

NCI-H2126 = tested on: NCI-H2126
Procedure, shortened: as §1

SW 900 = tested on: SW 900
Procedure, shortened: as §1

NCI-H650 = tested on: NCI-H650
Procedure, shortened: as §1

CCNC(=O)c1noc(-c2cc(C(C)C)c(O)cc2O)c1-c1ccc(CN2CCOCC2)cc1 [Luminespib] + Nc1ncn([C@H]2C[C@H](O)[C@@H](CO)O2)c(=O)n1 [Decitabine] (partner 2 µM) was tested, and the relative viability (RERF-LC-KJ; first compound 0.002 µM) was 0.759, the relative viability (RERF-LC-KJ; first compound 0.006325 µM) was 0.669 and the relative viability (RERF-LC-KJ; first compound 0.02 µM) was 0.417. It also gave a relative viability (RERF-LC-KJ; first compound 0.06325 µM) of 0.225, a relative viability (RERF-LC-KJ; first compound 0.2 µM) of 0.198 and a relative viability (UMC-11; first compound 0.002 µM) of 0.604. For the same compound, the relative viability (UMC-11; first compound 0.006325 µM) was 0.569, the relative viability (UMC-11; first compound 0.02 µM) was 0.334 and the relative viability (UMC-11; first compound 0.06325 µM) was 0.56. The relative viability (UMC-11; first compound 0.2 µM) was 0.23, the relative viability (NCI-H2087; first compound 0.002 µM) was 0.25 and the relative viability (NCI-H2087; first compound 0.006325 µM) was 0.235. The relative viability (NCI-H2087; first compound 0.02 µM) was 0.189, the relative viability (NCI-H2087; first compound 0.06325 µM) was 0.145 and the relative viability (NCI-H2087; first compound 0.2 µM) was 0.101. It also gave a relative viability (SK-MES-1; first compound 0.002 µM) of 0.392, a relative viability (SK-MES-1; first compound 0.006325 µM) of 0.385 and a relative viability (SK-MES-1; first compound 0.02 µM) of 0.213. For the same compound, the relative viability (SK-MES-1; first compound 0.06325 µM) was 0.146, the relative viability (SK-MES-1; first compound 0.2 µM) was 0.147 and the relative viability (BEN; first compound 0.002 µM) was 0.84. For the same compound, the relative viability (BEN; first compound 0.006325 µM) was 0.644, the relative viability (BEN; first compound 0.02 µM) was 0.458 and the relative viability (BEN; first compound 0.06325 µM) was 0.306. For the same compound, the relative viability (BEN; first compound 0.2 µM) was 0.294, the relative viability (LC-2-ad; first compound 0.002 µM) was 0.886 and the relative viability (LC-2-ad; first compound 0.006325 µM) was 0.766. For the same compound, the relative viability (LC-2-ad; first compound 0.02 µM) was 0.754, the relative viability (LC-2-ad; first compound 0.06325 µM) was 0.778 and the relative viability (LC-2-ad; first compound 0.2 µM) was 0.786. The relative viability (NCI-H1395; first compound 0.002 µM) was 0.745, the relative viability (NCI-H1395; first compound 0.006325 µM) was 0.694 and the relative viability (NCI-H1395; first compound 0.02 µM) was 0.634. For the same compound, the relative viability (NCI-H1395; first compound 0.06325 µM) was 0.382, the relative viability (NCI-H1395; first compound 0.2 µM) was 0.357 and the relative viability (201T; first compound 0.002 µM) was 0.832. For the same compound, the relative viability (201T; first compound 0.006325 µM) was 0.867, the relative viability (201T; first compound 0.02 µM) was 0.844 and the relative viability (201T; first compound 0.06325 µM) was 0.811. It also gave a relative viability (201T; first compound 0.2 µM) of 0.827, a relative viability (LXF-289; first compound 0.002 µM) of 0.397 and a relative viability (LXF-289; first compound 0.006325 µM) of 0.354. It also gave a relative viability (LXF-289; first compound 0.02 µM) of 0.424, a relative viability (LXF-289; first compound 0.06325 µM) of 0.392 and a relative viability (LXF-289; first compound 0.2 µM) of 0.367. For the same compound, the relative viability (NCI-H2170; first compound 0.002 µM) was 0.468, the relative viability (NCI-H2170; first compound 0.006325 µM) was 0.456 and the relative viability (NCI-H2170; first compound 0.06325 µM) was 0.47. It also gave a relative viability (NCI-H2170; first compound 0.2 µM) of 0.507, a relative viability (HARA; first compound 0.002 µM) of 0.55 and a relative viability (HARA; first compound 0.006325 µM) of 0.569. For the same compound, the relative viability (HARA; first compound 0.02 µM) was 0.532, the relative viability (HARA; first compound 0.06325 µM) was 0.225 and the relative viability (HARA; first compound 0.2 µM) was 0.227. The relative viability (HOP-62; first compound 0.002 µM) was 0.219, the relative viability (HOP-62; first compound 0.006325 µM) was 0.297 and the relative viability (HOP-62; first compound 0.02 µM) was 0.267. For the same compound, the relative viability (HOP-62; first compound 0.06325 µM) was 0.223, the relative viability (HOP-62; first compound 0.2 µM) was 0.174 and the relative viability (LOU-NH91; first compound 0.002 µM) was 0.8. The relative viability (LOU-NH91; first compound 0.006325 µM) was 0.844, the relative viability (LOU-NH91; first compound 0.02 µM) was 0.686 and the relative viability (LOU-NH91; first compound 0.06325 µM) was 0.382. The relative viability (LOU-NH91; first compound 0.2 µM) was 0.436, the relative viability (COR-L 105; first compound 0.002 µM) was 0.674 and the relative viability (COR-L 105; first compound 0.006325 µM) was 0.654. It also gave a relative viability (COR-L 105; first compound 0.02 µM) of 0.567, a relative viability (COR-L 105; first compound 0.06325 µM) of 0.234 and a relative viability (COR-L 105; first compound 0.2 µM) of 0.334. The relative viability (H3255; first compound 0.002 µM) was 0.639, the relative viability (H3255; first compound 0.02 µM) was 0.446 and the relative viability (H3255; first compound 0.06325 µM) was 0.425. For the same compound, the relative viability (H3255; first compound 0.2 µM) was 0.222, the relative viability (NCI-H1993; first compound 0.002 µM) was 0.596 and the relative viability (NCI-H1993; first compound 0.006325 µM) was 0.579. For the same compound, the relative viability (NCI-H1993; first compound 0.02 µM) was 0.48, the relative viability (NCI-H1993; first compound 0.06325 µM) was 0.573 and the relative viability (NCI-H1993; first compound 0.2 µM) was 0.371. For the same compound, the relative viability (HCC-78; first compound 0.002 µM) was 0.644, the relative viability (HCC-78; first compound 0.006325 µM) was 0.611 and the relative viability (HCC-78; first compound 0.02 µM) was 0.666. The relative viability (HCC-78; first compound 0.06325 µM) was 0.725, the relative viability (HCC-78; first compound 0.2 µM) was 0.448 and the relative viability (EMC-BAC-2; first compound 0.002 µM) was 0.995. The relative viability (EMC-BAC-2; first compound 0.02 µM) was 0.783, the relative viability (EMC-BAC-2; first compound 0.06325 µM) was 0.564 and the relative viability (EMC-BAC-2; first compound 0.2 µM) was 0.237. The relative viability (LU99A; first compound 0.002 µM) was 0.953, the relative viability (LU99A; first compound 0.006325 µM) was 0.781 and the relative viability (LU99A; first compound 0.02 µM) was 0.5. The relative viability (LU99A; first compound 0.06325 µM) was 0.855, the relative viability (LU99A; first compound 0.2 µM) was 0.879 and the relative viability (NCI-H2126; first compound 0.002 µM) was 0.573. It also gave a relative viability (NCI-H2126; first compound 0.006325 µM) of 0.587, a relative viability (NCI-H2126; first compound 0.06325 µM) of 0.593 and a relative viability (NCI-H2126; first compound 0.2 µM) of 0.507. It also gave a relative viability (SW 900; first compound 0.002 µM) of 0.478, a relative viability (SW 900; first compound 0.006325 µM) of 0.472 and a relative viability (SW 900; first compound 0.02 µM) of 0.417. For the same compound, the relative viability (SW 900; first compound 0.06325 µM) was 0.156, the relative viability (SW 900; first compound 0.2 µM) was 0.159 and the relative viability (NCI-H650; first compound 0.002 µM) was 0.282. For the same compound, the relative viability (NCI-H650; first compound 0.006325 µM) was 0.354, the relative viability (NCI-H650; first compound 0.02 µM) was 0.307 and the relative viability (NCI-H650; first compound 0.06325 µM) was 0.252. The relative viability (NCI-H650; first compound 0.2 µM) was 0.0854.
